In ChEMBL document CHEMBL1134209, “Syntheses and evaluation of pyrido[2,3-dlpyrimidine-2,4-diones as PDE 4 inhibitors” (Bioorg Med Chem Lett, 2001):

Molecular target: Phosphodiesterase 4 (Rattus norvegicus) (UniProt P14270+P14646+P14644+P54748)
Experiment: In vitro inhibitory activity against phosphodiesterase 4 from rat liver at concentration of 3 uM

Q: With `Cn1c(=O)n(Cc2ccccc2)c(=O)c2cc(-c3cccc([N+](=O)[O-])c3)cnc21` as the compound, how does the Inhibition read?
A: 23.5%

Q: For `Cn1c(=O)n(Cc2ccccc2)c(=O)c2cc(COCc3ccccc3)cnc21`, which Inhibition is on record?
A: 49.8%

Q: With `CCOC(=O)c1cnc2c(c1)c(=O)n(Cc1ccccc1)c(=O)n2C` as the compound, how does the Inhibition read?
A: 43%

Q: With `Cn1c(=O)n(Cc2ccccc2)c(=O)c2cc(COc3ccccc3)cnc21` as the compound, how does the Inhibition read?
A: 45.1%

Q: Which Inhibition does the source give for `Cn1c(=O)n(Cc2ccccc2)c(=O)c2cc(-c3ccc(F)cc3)cnc21` here?
A: 44%

Q: How did the Inhibition turn out when `Cn1c(=O)n(Cc2ccccc2)c(=O)c2cc(-c3ccccc3)cnc21` was run?
A: 31.3%

Q: Which Inhibition does the source give for `CCOc1ccc(-c2ccnc3c2c(=O)n(Cc2ccccc2)c(=O)n3C)cc1` here?
A: 35.1%

Q: How did the Inhibition turn out when `CCCOCc1cnc2c(c1)c(=O)n(Cc1ccccc1)c(=O)n2C` was run?
A: 46.7%

Q: How did the Inhibition turn out when `Cn1c(=O)n(Cc2ccccc2)c(=O)c2cc(-c3ccccc3F)cnc21` was run?
A: 46.4%

Q: With `Cn1c(=O)n(Cc2ccccc2)c(=O)c2c(Cc3ccccc3)ccnc21` as the compound, how does the Inhibition read?
A: 57.1%

Q: Which Inhibition does the source give for `Cn1c(=O)n(Cc2ccccc2)c(=O)c2cc(Cc3ccccc3)cnc21` here?
A: 68.2%

Q: Which Inhibition does the source give for `Cn1c(=O)n(Cc2ccccc2)c(=O)c2cc(-c3ccccc3C(F)(F)F)cnc21` here?
A: 53.7%

Q: `Cn1c(=O)n(Cc2ccccc2)c(=O)c2cc(-c3ccc(Cl)cc3)cnc21` was tested. Which Inhibition did it give?
A: 47.8%

Q: Which Inhibition does the source give for `Cn1c(=O)n(Cc2ccccc2)c(=O)c2cc(-c3cccc(C(F)(F)F)c3)cnc21` here?
A: 37.6%

Q: For `Cn1c(=O)n(Cc2ccccc2)c(=O)c2c(-c3ccccc3F)ccnc21`, which Inhibition is on record?
A: 69.7%

Molecular target: Phosphodiesterase 4 (Rattus norvegicus, UniProt P14270+P14646+P14644+P54748)
Experiment: Inhibition of phosphodiesterase 4 from rat liver at 0.3 uM (not determined)

Q: With `Cn1c(=O)n(Cc2ccccc2)c(=O)c2cc(-c3ccccc3)cnc21` as the compound, how does the IC50 read?
A: > 10 µM
